Assay results: PubChem BioAssay AID200 (DTP/NCI, 2004)
Several values for one entry are separate records, joined by “and”; a condition that tells them apart may be missing. Identical values can stand only once. Inconclusive results and toxic doses are left out.

System: B6C3F1 mice, B16 melanoma ip, median survival T/C
Test: NCI In Vivo Anticancer Drug Screen. Data for tumor model B16 Melanoma (intraperitoneal) in B6C3F1 mice
Details: endpoint: median survival time, higher = longer survival
In short: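 Tumor-bearing mice received test compound; a separate group got vehicle only. Survival was then compared, with results reported as treated over control.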

[1] = dose: 12.5 mg/kg/injection, schedule: Q01DX009 (ip), vehicle: Klucel (hydroxypropylcellulose) (HPC)
[2] = dose: 25.0 mg/kg/injection, schedule: Q01DX009 (ip), vehicle: Klucel (hydroxypropylcellulose) (HPC)
[3] = dose: 50.0 mg/kg/injection, schedule: Q01DX009 (ip), vehicle: Klucel (hydroxypropylcellulose) (HPC)
[4] = dose: 100.0 mg/kg/injection, schedule: Q01DX009 (ip), vehicle: Klucel (hydroxypropylcellulose) (HPC)
[5] = dose: 200.0 mg/kg/injection, schedule: Q01DX009 (ip), vehicle: Klucel (hydroxypropylcellulose) (HPC)
[6] = dose: 400.0 mg/kg/injection, schedule: Q01DX009 (ip), vehicle: Klucel (hydroxypropylcellulose) (HPC)
[7] = dose: 200.0 mg/kg/injection, schedule: Q01DX009 (ip), vehicle: saline
[8] = dose: 12.5 mg/kg/injection, schedule: Q01DX009 (ip), vehicle: saline
[9] = dose: 25.0 mg/kg/injection, schedule: Q01DX009 (ip), vehicle: saline
[10] = dose: 50.0 mg/kg/injection, schedule: Q01DX009 (ip), vehicle: saline
[11] = dose: 3.12 mg/kg/injection, schedule: Q01DX009 (ip), vehicle: saline with Tween-80
[12] = dose: 6.25 mg/kg/injection, schedule: Q01DX009 (ip), vehicle: saline with Tween-80
[13] = dose: 12.5 mg/kg/injection, schedule: Q01DX009 (ip), vehicle: saline with Tween-80
[14] = dose: 25.0 mg/kg/injection, schedule: Q01DX009 (ip), vehicle: saline with Tween-80
[15] = dose: 100.0 mg/kg/injection, schedule: Q01DX009 (ip), vehicle: saline
[16] = dose: 50.0 mg/kg/injection, schedule: Q01DX009 (ip), vehicle: saline with Tween-80
[17] = dose: 100.0 mg/kg/injection, schedule: Q01DX009 (ip), vehicle: saline with Tween-80
[18] = dose: 200.0 mg/kg/injection, schedule: Q01DX009 (ip), vehicle: saline with Tween-80
[19] = dose: 3.12 mg/kg/injection, schedule: Q01DX009 (ip), vehicle: Klucel (hydroxypropylcellulose) (HPC)
[20] = dose: 6.25 mg/kg/injection, schedule: Q01DX009 (ip), vehicle: Klucel (hydroxypropylcellulose) (HPC)
[21] = dose: 400.0 mg/kg/injection, schedule: Q01DX009 (ip), vehicle: saline
[22] = dose: 400.0 mg/kg/injection, schedule: Q01DX009 (ip), vehicle: saline with Tween-80

CN=C(NC#N)NCCSCc1nc[nH]c1C
T/C [1]: 114 % of control
T/C [2]: 96 % of control
T/C [3]: 104 % of control
T/C [4]: 101 % of control
T/C [5]: 102 % of control
T/C [6]: 98 % of control

N[C@@H](Cc1ccc(N(CCCl)CCCl)cc1)C(=O)O
T/C (dose: 0.25 mg/kg/injection, schedule: Q01DX009 (ip), vehicle: saline): 111 % of control and 124 % of control
T/C (dose: 0.25 mg/kg/injection, schedule: Q01DX009 (ip), vehicle: water): 124 % of control
T/C (dose: 1.0 mg/kg/injection, schedule: Q01DX009 (ip), vehicle: water): 183 % of control
T/C (dose: 2.0 mg/kg/injection, schedule: Q01DX009 (ip), vehicle: saline with Tween-80): 176 % of control
T/C (dose: 2.0 mg/kg/injection, schedule: Q01DX009 (ip), vehicle: water): 194 % of control
T/C (dose: 2.0 mg/kg/injection, schedule: Q04DX003 (ip), vehicle: saline): 164 % of control
T/C (dose: 2.5 mg/kg/injection, schedule: Q04DX003 (ip), vehicle: saline): 182 % of control
T/C (dose: 4.0 mg/kg/injection, schedule: Q01DX009 (ip), vehicle: saline with Tween-80): 387 % of control
T/C (dose: 4.0 mg/kg/injection, schedule: Q04DX003 (ip), vehicle: saline): 204 % of control
T/C (dose: 5.0 mg/kg/injection, schedule: Q04DX003 (ip), vehicle: saline): 217 % of control
T/C (dose: 7.31 mg/kg/injection, schedule: Q01DX001 (ip), vehicle: other): 172 % of control
T/C (dose: 7.5 mg/kg/injection, schedule: Q04DX003 (ip), vehicle: saline): 230 % of control and 240 % of control
T/C (dose: 9.75 mg/kg/injection, schedule: Q01DX001 (ip), vehicle: other): 157 % of control
T/C (dose: 10.0 mg/kg/injection, schedule: Q04DX003 (ip), vehicle: saline): 79 % of control
T/C (dose: 13.0 mg/kg/injection, schedule: Q01DX001 (ip), vehicle: other): 173 % of control

CCCC(NC(=O)OCc1ccccc1)C(=O)NC(C)C(=O)O (centres undefined)
T/C [2]: 101 % of control
T/C [3]: 104 % of control
T/C [4]: 102 % of control

C[C@@H]1CN(C(=O)CCOS(C)(=O)=O)[C@@H](C)CN1C(=O)CCOS(C)(=O)=O
T/C [7]: 172 % of control

COc1ccc2c(c1)/C(=C/CCN(C)C)c1ccccc1S2
T/C [8]: 101 % of control
T/C [9]: 101 % of control
T/C [10]: 101 % of control

CCCCCCCC(=O)[O][Hg][CH2]C1COC([CH2][Hg][O]C(=O)CCCCCCC)CO1 (centres undefined)
T/C (dose: 1.56 mg/kg/injection, schedule: Q01DX009 (ip), vehicle: saline with Tween-80): 95 % of control and 102 % of control
T/C [11]: 96 % of control and 103 % of control
T/C [12]: 94 % of control and 101 % of control
T/C [13]: 93 % of control and 97 % of control
T/C [14]: 91 % of control

CC1=NN(c2cccc(S(=O)(=O)O)c2)C(=O)C1N=Nc1cc(Cl)cc(S(=O)(=O)O)c1O.CC1=NN(c2cccc(S(=O)(=O)O)c2)C(=O)C1N=Nc1cc(Cl)cc(S(=O)(=O)O)c1O.[Cr] (centres undefined)
T/C [10]: 91 % of control
T/C [15]: 91 % of control

CCCCC(NC(=O)CNC(=O)OCc1ccccc1)C(=O)O (centres undefined)
T/C [4]: 92 % of control
T/C [5]: 96 % of control
T/C [6]: 92 % of control

CC(=O)OC(OC(C)=O)c1ccc([N+](=O)[O-])c([N+](=O)[O-])c1
T/C [1]: 102 % of control
T/C [2]: 99 % of control
T/C [3]: 102 % of control

CCCCc1ccc2nc(NC(=O)OC)[nH]c2c1
T/C [14]: 154 % of control
T/C [16]: 165 % of control
T/C [17]: 165 % of control

CC(C)(C)OC(=O)NC(Cc1cnc[nH]1)C(=O)O (centres undefined)
T/C [4]: 97 % of control
T/C [5]: 94 % of control
T/C [6]: 106 % of control

O=c1ccc(N=Nc2ccccc2)ccc1Cl
T/C (dose: 0.25 mg/kg/injection, schedule: Q01DX009 (ip), vehicle: Klucel (hydroxypropylcellulose) (HPC)): 98 % of control
T/C (dose: 0.5 mg/kg/injection, schedule: Q01DX009 (ip), vehicle: Klucel (hydroxypropylcellulose) (HPC)): 93 % of control
T/C (dose: 1.0 mg/kg/injection, schedule: Q01DX009 (ip), vehicle: Klucel (hydroxypropylcellulose) (HPC)): 100 % of control

Cc1c(CNc2ccc(C(=O)NC(CC(=O)O)C(=O)O)cc2)ccc2nc(N)nc(N)c12 (centres undefined)
T/C (dose: 0.18 mg/kg/injection, schedule: Q01DX009 (ip), vehicle: saline with Tween-80): 90 % of control

O=C1O/C(=C2\OCc3ccccc32)c2ccccc21
T/C [14]: 115 % of control
T/C [16]: 119 % of control
T/C [17]: 96 % of control
T/C [18]: 102 % of control

C/C=C/C=C1/OC(C)=C(C(C)=O)C1=O
T/C [13]: 99 % of control
T/C [14]: 99 % of control
T/C [16]: 106 % of control
T/C [17]: 98 % of control
T/C [18]: 109 % of control

O=C1C=C(Nc2ccccc2)c2ccccc2C1=O
T/C [2]: 104 % of control
T/C [3]: 96 % of control
T/C [4]: 91 % of control

CN1CCN(c2ccc3nc(-c4ccc5nc(-c6ccc(O)cc6)[nH]c5c4)[nH]c3c2)CC1
T/C (dose: 6.25 mg/kg/injection, schedule: Q01DX009 (ip), vehicle: saline): 95 % of control
T/C [8]: 99 % of control
T/C [9]: 89 % of control

COc1ccc(Cl)[n+]([O-])n1
T/C [19]: 93 % of control
T/C [20]: 88 % of control
T/C [1]: 94 % of control
T/C [2]: 99 % of control
T/C [3]: 93 % of control

CC(NC(=O)C1CCCN1C(=O)CN)C(=O)O (centres undefined)
T/C [15]: 105 % of control
T/C [7]: 92 % of control
T/C [21]: 96 % of control

CC(NC(=O)OCc1ccccc1)C(=O)NC(C(=O)O)C(C)O (centres undefined)
T/C [4]: 98 % of control
T/C [5]: 106 % of control

COC(=O)C(F)C(Br)C(=O)OC (centres undefined)
T/C (dose: 3.13 mg/kg/injection, schedule: Q01DX009 (ip), vehicle: saline with Tween-80): 98 % of control
T/C [12]: 91 % of control
T/C [13]: 93 % of control
T/C [14]: 93 % of control
T/C [16]: 90 % of control

NC(CO)(CO)CO
T/C [7]: 104 % of control
T/C (dose: 200.0 mg/kg/injection, schedule: Q12HX018 (ip), vehicle: saline): 102 % of control
T/C [21]: 102 % of control
T/C (dose: 400.0 mg/kg/injection, schedule: Q12HX018 (ip), vehicle: saline): 102 % of control
T/C (dose: 800.0 mg/kg/injection, schedule: Q01DX009 (ip), vehicle: saline): 98 % of control
T/C (dose: 800.0 mg/kg/injection, schedule: Q12HX018 (ip), vehicle: saline): 106 % of control
T/C (dose: 1600.0 mg/kg/injection, schedule: Q01DX009 (ip), vehicle: saline): 98 % of control
T/C (dose: 1600.0 mg/kg/injection, schedule: Q12HX018 (ip), vehicle: saline): 101 % of control

CCC(CC)COC(=O)c1ccccc1C(=O)OCC(CC)CC
T/C [11]: 98 % of control
T/C [12]: 97 % of control and 106 % of control
T/C [13]: 110 % of control and 90 % of control and 107 % of control
T/C [14]: 91 % of control and 96 % of control and 103 % of control
T/C [16]: 89 % of control and 96 % of control and 97 % of control
T/C [17]: 93 % of control and 97 % of control
T/C [18]: 106 % of control
T/C [22]: 104 % of control

C[C@@H]1C[C@H]2[C@@H]3CCC4=CC(=O)C=C[C@]4(C)[C@@]3(F)[C@@H](O)C[C@]2(C)[C@@]1(O)C(=O)CO
T/C [19]: 109 % of control
T/C [20]: 118 % of control
T/C [1]: 104 % of control

N#CCCSC(=S)C1CCCC1=N (centres undefined)
T/C [13]: 103 % of control
T/C [14]: 106 % of control
T/C [16]: 98 % of control
T/C [17]: 106 % of control
T/C [18]: 103 % of control
T/C [22]: 104 % of control

Nc1ncnc2c1cnn2Cc1ccc(Cl)cc1
T/C [16]: 107 % of control
T/C [17]: 100 % of control

O=C(Nc1ccc(N=C=S)cc1Cl)c1cc(Cl)cc(Cl)c1O
T/C [20]: 107 % of control
T/C [1]: 98 % of control
T/C [2]: 116 % of control

CC[C@](O)(C(=O)O)c1cc2n(c(=O)c1CO)Cc1cc3ccccc3nc1-2
T/C (dose: 0.75 mg/kg/injection, schedule: Q01DX009 (ip), vehicle: water): 117 % of control
T/C (dose: 1.5 mg/kg/injection, schedule: Q01DX009 (ip), vehicle: water): 154 % of control
T/C (dose: 3.0 mg/kg/injection, schedule: Q01DX009 (ip), vehicle: water): 169 % of control

O=CC=O
T/C [13]: 114 % of control
T/C [14]: 110 % of control
T/C [16]: 102 % of control and 108 % of control
T/C [17]: 114 % of control and 106 % of control
T/C [18]: 120 % of control and 108 % of control
